“And” between values parts separate entries of the source, which are not always exact repeats. Identical values can stand only once.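 Exposure lasted 48 hours, with cells grown in 96-well plates and compounds tested at five concentrations. Here, GI50 denotes the concentration required for 50% inhibition of growth. TGI is the concentration that stops growth completely.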
Columns and labels:
Test in all cases: DTP human tumour cell line panel, 48 h
NCI-H23 lung = test system: NCI-H23 lung
PC-3 prostate = test system: PC-3 prostate
SF-539 CNS = test system: SF-539 CNS
SK-MEL-5 melanoma = test system: SK-MEL-5 melanoma
UO-31 renal = test system: UO-31 renal
A549 NSCLC = test system: A549 NSCLC
UACC-62 melanoma = test system: UACC-62 melanoma
SN12C renal = test system: SN12C renal

SMILES	GI50 (NCI-H23 lung)	TGI (NCI-H23 lung) [µM]	GI50 (PC-3 prostate)	TGI (PC-3 prostate) [µM]	GI50 (SF-539 CNS) [µM]	TGI (SF-539 CNS) [µM]	GI50 (SK-MEL-5 melanoma) [µM]	TGI (SK-MEL-5 melanoma) [µM]	GI50 (UO-31 renal) [µM]	TGI (UO-31 renal) [µM]	GI50 (A549 NSCLC)	TGI (A549 NSCLC) [µM]	GI50 (UACC-62 melanoma) [µM]	TGI (UACC-62 melanoma) [µM]	GI50 (SN12C renal)	TGI (SN12C renal) [µM]
CCN(Cc1ccccc1)C1CCN(Cc2cc(Br)ccc2O)CC1	34.9 µM	> 100	38.9 µM	> 100	36.7	> 100	15	28.9	24	> 100	69.6 µM	> 100	26.6	> 100	42.9 µM	> 100
CC1CC[P+](c2ccccc2)(c2ccccc2)c2c1ccc1ccccc21 (centres undefined)	–	9.78	–	7.34	–	35.8	–	5.16	–	> 68.3	–	> 100	–	20.1	–	37.1
COc1ccc(C/C(=C(\C)c2ccc(OCCN3CCCC3)cc2)c2ccc(OCCN3CCCC3)cc2)cc1	3.67 µM	14.1	1.75 µM	4.07	1.8	3.25	1.72	3.11	1.56	2.94	1.82 µM	3.84	1.78	3.38	1.67 µM	3.2
O=C(/C=C\c1ccc([N+](=O)[O-])cc1)c1ccccc(=O)c1O	–	12.4	–	9.84	–	–	–	2.38	–	3.3	–	11.9	–	3.13	–	> 100
Cc1csc2[n+]1-c1ccccc1N(C(=O)Nc1ccccc1)C(C)C2 (centres undefined)	35.8 µM	> 100	59.1 µM	> 100	–	–	42.6	> 100	> 100	> 100	36.6 µM	> 100	60.4	> 100	> 100 µM	> 100
COc1cccc(CC(C)=C(c2ccc(OCCN3CCCCC3)cc2)c2ccc(OCCN3CCCCC3)cc2)c1	2.13 µM	4.47	1.83 µM	3.75	2.11	4.11	2.23	4.17	1.84	3.66	2.2 µM	4.35	2.1	4.17	2.02 µM	4.04
CC(C)(C)C1CCC2c3c([nH]c4ccccc34)C3C(=O)N(c4ccc(Cl)cc4)C(=O)C3C2C1 (centres undefined)	58.4 µM and > 10 µM	> 100	37.4 µM and > 10 µM	> 100	> 100	> 100	> 100	> 100	> 100	> 100	67 µM and > 10 µM	> 100	> 100	> 100	37.4 µM and > 10 µM	> 100
COc1ccc(/C(COc2ccc3oc(-c4ccccc4)cc(=O)c3c2)=N\O)cc1	0.189 µM	9.75	0.202 µM	> 19.2	1.25	2.72	0.93	7.98	1.6	> 50	0.133 µM	> 50	0.0338	2.22	0.231 µM	4.54
